Measurements: US8101570B2, “Single branch heparin-binding growth factor analogs” (BioSurface Engineering Technologies, Inc., priority 2005, dated 2012)
Like-named read-outs stand apart in the source and are kept apart here. Where a SMILES comes first, the peptide text is derived from it. Bridges are numbered along the chain shown (N, C = ends). Roman numbers before positions name the chains, in order. Where no end group is shown, it is not given here. [ ]: non-standard residue; d: D form. Hx = not defined here; Ahx = NCCCCCC(=O)O

Tests used:
[1] = test system: M-NSF-60 cells; assay: Augmentation of growth of M-NSF-60 cells in the presence of rhGCSF; type: cell-based; conditions: 0.01 ng rhGCSF, FIG. 9
Experimental: This peptide was evaluated for augmentation of growth using M-NSF-60 cells in the presence of 0.01 ng rhGCSF.

[2] = test system: C2C12 cells; assay: C2C12 cell migration, trans-well insert assay; type: cell-based; conditions: 8 μm pore membrane coated with collagen, FIG. 3
Experimental: Cell migration. SD1-1 was evaluated for its ability to induce migration of C2C12 cells using a commercially-available cell migration assay. C2C12 cells were seeded on a trans-well insert containing an 8 μm pore size polycarbonate membrane coated with a thin layer of polymerized collagen. The inserts were placed into wells with medium containing SD1-1. Cells that migrated through the membrane were found on the bottom of the insert membrane. These cells were stained, and the stain extracted and detected on a standard microplate reader (560 nm). Referring now to FIG. 3, the results of cell migration in response to the SD1-1 peptide as compared to SDF-1 peptide or control are illustrated. Data is reported as the average±SD.

[3] = test system: Sup-T1 cells; assay: Sup-T1 cell proliferation; type: cell-based; conditions: low serum, 3 days, FIG. 2
Experimental: Cell proliferation. Sup-T1 cells were obtained from the American Type Culture Collection (Manassas, Va.) and were grown in culture. To monitor the effect of SD1-1 on cell proliferation, Sup-T1 cells were seeded at 100,000 cells per well of a 96-well plate and allowed to attach. The medium was changed to one containing low serum plus SD1-1 and the cells incubated for 3 days after which time the relative cell number was determined using a commercially available kit Referring now to FIG. 2, data in the graph below is reported as the average±SD. Commercially-available recombinant human SDF-1 (diamond) was used as a reference and positive control for comparison of proliferation stimulated by […].

[4] = target: T1, human PDGF-R-alpha (Homo sapiens, UniProt P16234); assay: Surface plasmon resonance (BIAcore) binding to immobilized soluble PDGF receptor alpha; conditions: SPR, 1:1 fit; for kon: read-out: Ka (association rate constant); for koff: read-out: Kd (dissociation rate constant)
T1 construct: Soluble PDGF receptor, recombinant chimera of human PDGF-R-alpha; purchased R&D Systems
Experimental: (§1) Surface Plasmon Resonance (SPR) Analysis. Real-time biomolecular interactions were analyzed with a BIAcore 2000 system (Biacore Inc., Piscataway, N.J.). Soluble PDGF receptor, recombinant chimera of human PDGF-R-alpha and PSGF-R-beta (R &D Systems, Minneapolis, Minn.), was immobilized on research grade CM5 chips (Biacore Inc., Piscataway, N.J.). Following activation with EDC/NHS, the receptors were immobilized on activated CM5 chips. To obtain kinetic data, different concentrations of analytes in HBS-EP buffer were injected over the sensor chip at a flow rate of 50 μl/min. Peptide binding was measured in resonance units (RU). At the end of each sample injection (120 s) buffer was passed over the sensor surface to monitor the dissociation phase. Reference responses from blank flow cells were subtracted from receptor-containing flow cells for each analyte injection and the kinetic parameters for each interaction were determined by globally fitting the experimental data to a 1:1 interaction with BIAEVALUATION software (Biacore Inc., Piscataway, N.J.). The association rate constant and the dissociation rate constant (ka and kd, respectively), and the equilibrium dissociation constant (KD) are presented in the Table 3 for the receptors and PBA2-1.
as §1, with “4” for “3”

[5] = target: T2, PDGF R Beta (Homo sapiens, UniProt P09619); assay: Surface plasmon resonance (BIAcore) binding to immobilized soluble PDGF receptor beta; conditions: for kon / koff: SPR, 1:1 fit; for kon: read-out: Ka (association rate constant); for koff: read-out: Kd (dissociation rate constant)
T2 construct: Soluble PDGF receptor, recombinant chimera of human PDGF-R-alpha and PSGF-R-beta; purchased R&D Systems
Experimental: as §1
as §1, with “4” for “3”

[6] = test system: C2C12 cells; assay: Alkaline phosphatase assay in C2C12 cells in the presence of recombinant BMP-7; type: cell-based, mouse; conditions: serum low medium containing BMP-7, FIG. 8
Experimental: This peptide was evaluated using C2C12 cells and in the presence of recombinant BMP-7 and using alkaline phosphatase production as an endpoint. Alkaline phosphatase assays were performed using mouse the pluripotent cell lines C2C12. Cells were plated in 96-well (1×10^4/well) plates and allowed 24 hours to attach. The medium was then replaced with a serum low medium containing BMP-7 and/or B7A1-6. After several days, cells were rinsed, lysed, and alkaline phosphatase activity measured using p-nitrophenylphosphate as substrate.

T2 sequence (P09619 33-532 limits assumed): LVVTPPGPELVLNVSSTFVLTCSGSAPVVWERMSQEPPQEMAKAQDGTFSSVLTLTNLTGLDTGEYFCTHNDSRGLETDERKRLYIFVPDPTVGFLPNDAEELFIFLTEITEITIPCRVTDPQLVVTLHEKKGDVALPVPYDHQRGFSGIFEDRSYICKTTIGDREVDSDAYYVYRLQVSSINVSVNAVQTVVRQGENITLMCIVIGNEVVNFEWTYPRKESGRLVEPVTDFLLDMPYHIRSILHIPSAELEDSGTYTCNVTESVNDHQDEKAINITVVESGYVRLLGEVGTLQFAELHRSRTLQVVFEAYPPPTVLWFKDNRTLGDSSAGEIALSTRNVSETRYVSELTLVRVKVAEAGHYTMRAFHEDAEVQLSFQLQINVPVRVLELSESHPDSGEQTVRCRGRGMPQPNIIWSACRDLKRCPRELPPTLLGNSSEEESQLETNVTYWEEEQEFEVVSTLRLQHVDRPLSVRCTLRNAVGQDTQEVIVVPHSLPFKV
T1 sequence (P16234 24-528 limits assumed): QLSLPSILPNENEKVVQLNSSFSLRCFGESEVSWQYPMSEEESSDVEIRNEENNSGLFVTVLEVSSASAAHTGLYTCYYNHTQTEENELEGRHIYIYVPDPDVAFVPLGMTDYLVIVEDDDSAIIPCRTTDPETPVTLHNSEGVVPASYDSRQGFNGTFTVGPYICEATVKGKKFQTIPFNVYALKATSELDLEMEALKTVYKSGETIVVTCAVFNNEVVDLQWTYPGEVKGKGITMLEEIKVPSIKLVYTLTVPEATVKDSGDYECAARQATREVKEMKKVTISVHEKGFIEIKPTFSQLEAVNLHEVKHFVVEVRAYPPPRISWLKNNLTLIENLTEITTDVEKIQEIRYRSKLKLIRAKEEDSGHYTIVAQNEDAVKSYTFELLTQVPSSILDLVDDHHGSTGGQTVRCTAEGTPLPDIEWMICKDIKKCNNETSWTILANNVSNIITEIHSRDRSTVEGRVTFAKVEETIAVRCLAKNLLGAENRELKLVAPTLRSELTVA

## SFLLKALEQVRKIQYK(SFLLKALEQVRKIQY)HxHxHxRKRKLERIAR-amide (chain 1 SFLLKALEQVRKIQYK-{Hx-Hx-Hx-Arg-Lys-Arg-Lys-Leu-Glu-Arg-Ile-Ala-Arg-NH2}; reading uncertain; also: chain 2 C-terminus branched onto side chain of Lys16 of chain 1, bond at chain A 16 to a chain's C-terminus) [GCSF1]
[1]
  augmentation of cellular growth: augmented cellular growth

## SDF-1: Commercially-available recombinant human SDF-1 used as a reference and positive control [reference compound]
[2]
  cell migration: induced cell migration
[3]
  cell proliferation (relative cell number): concentration dependent induction of cell proliferation

## CC[C@H](C)[C@H](NC(=O)[C@H](CCCNC(=N)N)NC(=O)[C@H](CCC(=O)O)NC(=O)[C@H](CC(C)C)NC(=O)[C@H](CCCCN)NC(=O)[C@H](CCCNC(=N)N)NC(=O)[C@H](CCCCN)NC(=O)[C@H](CCCNC(=N)N)NC(=O)CCCCCNC(=O)CCCCCNC(=O)CCCCCNC(=O)[C@H](CCCCNC(=O)[C@H](CCCCN)NC(=O)[C@H](CCCCN)NC(=O)[C@H](CCCNC(=N)N)NC(=O)[C@@H](NC(=O)[C@@H](NC(=O)[C@H](CCC(=O)O)NC(=O)[C@@H](NC(=O)[C@H](CCCCN)NC(=O)[C@H](CCCNC(=N)N)NC(=O)[C@@H](N)C(C)C)[C@@H](C)CC)[C@@H](C)CC)C(C)C)NC(=O)[C@H](CCCCN)NC(=O)[C@H](CCCCN)NC(=O)[C@H](CCCNC(=N)N)NC(=O)[C@@H](NC(=O)[C@@H](NC(=O)[C@H](CCC(=O)O)NC(=O)[C@@H](NC(=O)[C@H](CCCCN)NC(=O)[C@H](CCCNC(=N)N)NC(=O)[C@@H](N)C(C)C)[C@@H](C)CC)[C@@H](C)CC)C(C)C)C(=O)N[C@@H](C)C(=O)N[C@@H](CCCNC(=N)N)C(N)=O [PBA2-1, VRKIEIVRKKK(VRKIEIVRKK)HxHxHxRKRKLERIAR-amide] (I: H-VRKIEIVRKKK[Ahx][Ahx][Ahx]RKRKLERIAR-NH2 / II: H-VRKIEIVRKK; amide I:11-II:C)
[4]; Table 3, PDGF R Alpha
  kon: 198000 M⁻¹ s⁻¹
  koff: 0.00336 s⁻¹
[4]; Table 4, Alpha
  kon: 414000 M⁻¹ s⁻¹
  koff: 0.00965 s⁻¹
[5]
  Kd: 20.2 nM
[5]; Table 3, PDGF R Beta
  kon: 133000 M⁻¹ s⁻¹
  koff: 0.00296 s⁻¹
[5]; Table 4, Beta
  kon: 353000 M⁻¹ s⁻¹
  koff: 0.00714 s⁻¹

## AISVLYFDDSSNVILKKK(AISVLYFDDSSNVILKK)HxHxHxRKRKLERIAR-amide (chain 1 AISVLYFDDSSNVILKKK-{Hx-Hx-Hx-Arg-Lys-Arg-Lys-Leu-Glu-Arg-Ile-Ala-Arg-NH2}; reading uncertain; also: chain 2 C-terminus branched onto side chain of Lys18 of chain 1, bond at chain A 18 to a chain's C-terminus) [Example B7A1-6]
[6]
  effect on BMP-7 activity (alkaline phosphatase activity): dose-dependant suppression of the activity of BMP-7

## KPVSLSYRAPARFFESHVAK(KPVSLSYRAPARFFESHVA)HxHxHxRKRKLERIAR-amide [SD1-1]
[2]
  cell migration: induced cell migration
[3]
  cell proliferation (relative cell number): concentration dependent induction of cell proliferation
